Reference: ChEMBL document CHEMBL5137044, “Expansion of the S-CN-DABO scaffold to exploit the impact on inhibitory activities against the non-nucleoside HIV-1 reverse transcriptase” (Eur J Med Chem, 2022)

Tests used:
[1] = Fold resistance, ratio of EC50 for antiviral activity against drug-resistant HIV-1 Y188L mutant infected in human MT4 cells to EC50 for antiviral activity against […] HIV-1 infected in human MT4 cells; type: functional
[2] = Fold resistance, ratio of EC50 for antiviral activity against drug-resistant HIV-1 L100I mutant infected in human MT4 cells to EC50 for antiviral activity against […] HIV-1 infected in human MT4 cells; type: functional
[3] = system: Human immunodeficiency virus 1; assay: Antiviral activity against drug-resistant HIV-1 L100I mutant infected in human MT4 cells assessed as reduction in virus-induced cytopathic effect incubated for 5 days by MTT assay; type: functional, organism-based; conditions: Human immunodeficiency virus 1, L100I mutant, MT4, 120 h
[4] = Fold resistance, ratio of EC50 for antiviral activity against drug-resistant HIV-1 E138K mutant infected in human MT4 cells to EC50 for antiviral activity against […] HIV-1 infected in human MT4 cells; type: functional
[5] = system: Human immunodeficiency virus 1; assay: Antiviral activity against drug-resistant HIV-1 Y188L mutant infected in human MT4 cells assessed as reduction in virus-induced cytopathic effect incubated for 5 days by MTT assay; type: functional, organism-based; conditions: Human immunodeficiency virus 1, Y188L mutant, MT4, 120 h
[6] = biological target: Human immunodeficiency virus type 1 reverse transcriptase (Human immunodeficiency virus 1, UniProt Q72547); assay: Inhibition of recombinant wild-type p66/p51 HIV-1 reverse transcriptase incubated for 40 mins by picogreen dye-based spectrofluorometric analysis
[7] = system: Human immunodeficiency virus 1; assay: Antiviral activity against drug-resistant HIV-1 E138K mutant infected in human MT4 cells assessed as reduction in virus-induced cytopathic effect incubated for 5 days by MTT assay; type: functional, organism-based; conditions: Human immunodeficiency virus 1, E138K mutant, MT4, 120 h
[8] = system: Human immunodeficiency virus 1; assay: Antiviral activity against drug-resistant HIV-1 K103 N mutant infected in human MT4 cells assessed as reduction in virus-induced cytopathic effect incubated for 5 days by MTT assay; type: functional, organism-based; conditions: Human immunodeficiency virus 1, K103 N mutant, MT4, 120 h
[9] = system: Human immunodeficiency virus 1; assay: Antiviral activity against […] HIV-1 infected in human MT4 cells assessed as reduction in virus-induced cytopathic effect incubated for 5 days by MTT assay; type: functional, organism-based; conditions: Human immunodeficiency virus 1, MT4, 120 h
[10] = Selectivity index, ratio of CC50 for human MT4 cells to EC50 for antiviral activity against NNRTI resistant HIV-1 infected in human MT4 cells; type: toxicity, cell-based; conditions: read-out: Ratio CC50/EC50
[11] = Fold resistance, ratio of EC50 for antiviral activity against drug-resistant HIV-1 Y181C mutant infected in human MT4 cells to EC50 for antiviral activity against […] HIV-1 infected in human MT4 cells; type: functional
[12] = system: Human immunodeficiency virus 1; assay: Antiviral activity against drug-resistant HIV-1 Y181C mutant infected in human MT4 cells assessed as reduction in virus-induced cytopathic effect incubated for 5 days by MTT assay; type: functional, organism-based; conditions: Human immunodeficiency virus 1, Y181C mutant, MT4, 120 h
[13] = Cytotoxicity against human MT4 cells assessed as cell growth inhibition incubated for 5 days by MTT assay; type: toxicity, cell-based; conditions: time 5 day
[14] = Fold resistance, ratio of EC50 for antiviral activity against drug-resistant HIV-1 K103 N mutant infected in human MT4 cells to EC50 for antiviral activity against […] HIV-1 infected in human MT4 cells; type: functional

Cc1c(C(C#N)c2ccc(C(F)(F)F)cc2)nc(SC(C)C)[nH]c1=O (stereo not drawn)
Ratio EC50 [1]: >8 | Ratio EC50 [2]: >8 | EC50 [3]: > 39.8 µM | Ratio EC50 [4]: 2 | EC50 [5]: > 39.8 µM | IC50 [6]: 13300 nM | EC50 [7]: 9110 nM | EC50 [8]: > 39.8 µM | EC50 [9]: 5300 nM | selectivity ratio [10]: 8 | Ratio EC50 [11]: >8 | EC50 [12]: > 39.8 µM | CC50 at 120 h [13]: 39.8 µM | Ratio EC50 [14]: >8

Cc1c(C(C#N)c2cccc3c2OCO3)nc(SC(C)C)[nH]c1=O (stereo not drawn)
Ratio EC50 [1]: >214 | Ratio EC50 [2]: 22 | EC50 [3]: 10 µM | Ratio EC50 [4]: 4 | EC50 [5]: > 96.5 µM | IC50 [6]: 1350 nM | EC50 [7]: 1940 nM | EC50 [8]: > 96.5 µM | EC50 [9]: 450 nM | selectivity ratio [10]: 213 | Ratio EC50 [11]: 113 | EC50 [12]: 50.7 µM | CC50 at 120 h [13]: 96.5 µM | Ratio EC50 [14]: >214

Cc1c(C(C#N)c2ccccc2)nc(SC(C)C)[nH]c1=O (stereo not drawn)
Ratio EC50 [1]: >550 | Ratio EC50 [2]: 28 | EC50 [3]: 10.3 µM | Ratio EC50 [4]: 2 | EC50 [5]: > 204 µM | IC50 [6]: 1510 nM | EC50 [7]: 870 nM | EC50 [8]: 68.3 µM | EC50 [9]: 370 nM | selectivity ratio [10]: 547 | Ratio EC50 [11]: 25 | EC50 [12]: 9.21 µM | CC50 at 120 h [13]: 204 µM | Ratio EC50 [14]: 185

Cc1c(C(C#N)c2cc(F)cc(F)c2)nc(SC(C)C)[nH]c1=O (stereo not drawn)
Ratio EC50 [1]: >396 | Ratio EC50 [2]: 36 | EC50 [3]: 18.5 µM | Ratio EC50 [4]: 4 | EC50 [5]: > 202 µM | IC50 [6]: 1290 nM | EC50 [7]: 1910 nM | EC50 [8]: 51.5 µM | EC50 [9]: 510 nM | selectivity ratio [10]: 394 | Ratio EC50 [11]: 17 | EC50 [12]: 8.7 µM | CC50 at 120 h [13]: 202 µM | Ratio EC50 [14]: 101

Cc1c(C(C#N)c2ccc(Cl)nc2)nc(SC(C)C)[nH]c1=O (stereo not drawn)
Ratio EC50 [1]: >10 | Ratio EC50 [2]: 2 | EC50 [3]: 32.3 µM | Ratio EC50 [4]: 1 | EC50 [5]: > 216 µM | IC50 [6]: 203000 nM | EC50 [7]: 28600 nM | EC50 [8]: 41.3 µM | EC50 [9]: 20600 nM | selectivity ratio [10]: 10 | Ratio EC50 [11]: 2 | EC50 [12]: 41.3 µM | CC50 at 120 h [13]: 216 µM | Ratio EC50 [14]: 2

Cc1cccc(C)c1C(C#N)c1nc(SC(C)C)[nH]c(=O)c1C (stereo not drawn)
Ratio EC50 [1]: >73 | Ratio EC50 [2]: >73 | EC50 [3]: > 68.1 µM | Ratio EC50 [4]: 4 | EC50 [5]: > 68.1 µM | IC50 [6]: 6590 nM | EC50 [7]: 3480 nM | EC50 [8]: > 68.1 µM | EC50 [9]: 930 nM | selectivity ratio [10]: 73 | Ratio EC50 [11]: >73 | EC50 [12]: > 68.1 µM | CC50 at 120 h [13]: 68.1 µM | Ratio EC50 [14]: >73

COc1ccc(C(C#N)c2nc(SC(C)C)[nH]c(=O)c2C)cc1 (stereo not drawn)
Ratio EC50 [1]: >13 | Ratio EC50 [2]: 3 | EC50 [3]: 9.7 µM | Ratio EC50 [4]: 1 | EC50 [5]: > 37.1 µM | IC50 [6]: 20700 nM | EC50 [7]: 4290 nM | EC50 [8]: > 37.1 µM | EC50 [9]: 2920 nM | selectivity ratio [10]: 13 | Ratio EC50 [11]: >13 | EC50 [12]: > 37.1 µM | CC50 at 120 h [13]: 37.1 µM | Ratio EC50 [14]: >13

Cc1c(C(C#N)c2ccccc2C(F)(F)F)nc(SC(C)C)[nH]c1=O (stereo not drawn)
Ratio EC50 [1]: >96 | Ratio EC50 [2]: 2 | EC50 [3]: 5.92 µM | Ratio EC50 [4]: 1 | EC50 [5]: > 251 µM | IC50 [6]: 5990 nM | EC50 [7]: 3340 nM | EC50 [8]: > 67.6 µM | EC50 [9]: 2610 nM | selectivity ratio [10]: 96 | Ratio EC50 [11]: 4 | EC50 [12]: 10.1 µM | CC50 at 120 h [13]: 251 µM | Ratio EC50 [14]: >26

Cc1ccc(C(C#N)c2nc(SC(C)C)[nH]c(=O)c2C)cc1 (stereo not drawn)
Ratio EC50 [1]: >40 | Ratio EC50 [2]: >40 | EC50 [3]: > 12.9 µM | Ratio EC50 [4]: 2 | EC50 [5]: > 12.9 µM | IC50 [6]: 667 nM | EC50 [7]: 630 nM | EC50 [8]: > 12.9 µM | EC50 [9]: 320 nM | selectivity ratio [10]: 40 | Ratio EC50 [11]: >40 | EC50 [12]: > 12.9 µM | CC50 at 120 h [13]: 12.8 µM | Ratio EC50 [14]: >40

Cc1c(C(C#N)c2c(F)cccc2Cl)nc(SC(C)C)[nH]c1=O (stereo not drawn)
Ratio EC50 [1]: 3191 | Ratio EC50 [2]: 58 | EC50 [3]: 1.06 µM | Ratio EC50 [4]: 5 | EC50 [5]: > 58.7 µM | IC50 [6]: 74 nM | EC50 [7]: 90 nM | EC50 [8]: 3.3 µM | EC50 [9]: 18.4 nM | selectivity ratio [10]: 4050 | Ratio EC50 [11]: 76 | EC50 [12]: 1.4 µM | CC50 at 120 h [13]: 74.7 µM | Ratio EC50 [14]: 179

Cc1c(C(C#N)c2ccc(-c3ccccc3)cc2)nc(SC(C)C)[nH]c1=O (stereo not drawn)
EC50 [9]: > 30500 nM | selectivity ratio [10]: < 1 | CC50 at 120 h [13]: 30.5 µM

Cc1c(C(C#N)c2ccc(Br)cc2)nc(SC(C)C)[nH]c1=O (stereo not drawn)
Ratio EC50 [1]: >70 | Ratio EC50 [2]: >15 | EC50 [3]: > 10.3 µM | Ratio EC50 [4]: >2 | EC50 [5]: > 47.1 µM | IC50 [6]: 1780 nM | EC50 [7]: 1250 nM | EC50 [8]: > 47.1 µM | EC50 [9]: 670 nM | selectivity ratio [10]: 71 | Ratio EC50 [11]: >70 | EC50 [12]: > 47.1 µM | CC50 at 120 h [13]: 47.1 µM | Ratio EC50 [14]: >70

Cc1c(C(C#N)c2cccc(Br)c2)nc(SC(C)C)[nH]c1=O (stereo not drawn)
Ratio EC50 [1]: >445 | Ratio EC50 [2]: 26 | EC50 [3]: 7.37 µM | Ratio EC50 [4]: 3 | EC50 [5]: > 125 µM | IC50 [6]: 570 nM | EC50 [7]: 710 nM | EC50 [8]: 47.6 µM | EC50 [9]: 280 nM | selectivity ratio [10]: 443 | Ratio EC50 [11]: 23 | EC50 [12]: 6.43 µM | CC50 at 120 h [13]: 125 µM | Ratio EC50 [14]: >170

Cc1cn([C@H]2C[C@H](N=[N+]=[N-])[C@@H](CO)O2)c(=O)[nH]c1=O [ZIDOVUDINE]
Ratio EC50 [1]: 0.5 | Ratio EC50 [2]: 0.4 | EC50 [3]: 0.0084 µM | Ratio EC50 [4]: 1 | EC50 [5]: 0.0108 µM | EC50 [7]: 26.8 nM | EC50 [8]: 0.0287 µM | EC50 [9]: 22.9 nM | selectivity ratio [10]: > 309 | Ratio EC50 [11]: 1 | EC50 [12]: 0.0242 µM | Ratio EC50 [14]: 1

Cc1ccnc2c1NC(=O)c1cccnc1N2C1CC1 [NEVIRAPINE]
EC50 [3]: 2.57 µM | EC50 [5]: > 15 µM | EC50 [7]: 198 nM | EC50 [8]: 8.1 µM | EC50 [9]: 170 nM | EC50 [12]: 7.71 µM

Cc1c(C(C#N)c2cc(C(F)(F)F)cc(C(F)(F)F)c2)nc(SC(C)C)[nH]c1=O (stereo not drawn)
Ratio EC50 [1]: >10 | Ratio EC50 [2]: >10 | EC50 [3]: > 278 µM | Ratio EC50 [4]: 8 | EC50 [5]: > 287 µM | IC50 [6]: 55100 nM | EC50 [7]: 224000 nM | EC50 [8]: > 287 µM | EC50 [9]: 27400 nM | Ratio EC50 [11]: 7 | EC50 [12]: 186 µM | CC50 at 120 h [13]: 287 µM | Ratio EC50 [14]: >10

Cc1cc(C#N)cc(C)c1Oc1nc(Nc2ccc(C#N)cc2)nc(N)c1Br [ETRAVIRINE]
Ratio EC50 [1]: 7 | Ratio EC50 [2]: 4 | EC50 [3]: 0.0115 µM | Ratio EC50 [4]: 3 | EC50 [7]: 9.2 nM | EC50 [8]: 0.0034 µM | selectivity ratio [10]: > 1620 | Ratio EC50 [11]: 6 | EC50 [12]: 0.0162 µM | CC50 at 120 h [13]: 4.6 µM | Ratio EC50 [14]: 1

O=C1Nc2ccc(Cl)cc2[C@@](C#CC2CC2)(C(F)(F)F)O1 [EFAVIRENZ]
EC50 [3]: 0.0371 µM | EC50 [5]: 0.205 µM | EC50 [7]: 6.2 nM | EC50 [8]: 0.0942 µM | EC50 [12]: 0.0071 µM
